Data on four compounds can be found in DBAASP.

Values after ≈ are worked out from the molar mass of the structure shown.

Some test systems named below: Alternaria alternata; Cladosporium herbarum; Botrytis cinerea; Fusarium oxysporum LD21; Escherichia coli K91BK.
Common to all, as to experiment: ≥ marks a high value that may be exact or a test limit, other limits are often not marked, values filed in µg/mL are converted to µM
For test [1], the system named is Clavibacter michiganensis subsp. michiganensis DSM 46294.
In test [2] the test system is Pseudomonas syringae pv. syringae DSM 10604.
Test [3] deals with Pseudomonas syringae pv. tomato DC3000.
Test [4] has as its system Pectobacterium carotovorum subsp. carotovorum DSM 30168.
Test [5] concerns Pseudomonas corrugata DSM 7228.
The subject of test [6] is Xanthomonas vesicatoria DSM 50861.
The subject of test [7] is Staphylococcus aureus ATCC 33591.
The subject of test [8] is Escherichia coli ATCC 25922.
Test [9] concerns Enterococcus faecalis JH-2-2.
The test system of test [10] is Candida albicans ATCC 64550.
Test [11] concerns Streptococcus agalactiae ATCC 13813.
The subject of test [12] is Escherichia coli CGSC 5167.
In test [13] the test system is Escherichia coli LMG 15862.
In test [14] the test system is Acinetobacter baumannii LMG 01041.
Test [15] has as its system Staphylococcus aureus ATCC 25923.
The subject of test [16] is Candida albicans ATCC 10231.
The subject of test [17] is Klebsiella aerogenes LMG 02094.
For test [18], the system named is Klebsiella pneumoniae LMG 20218.
Test [19] relates to Pseudomonas aeruginosa ATCC 10145.
The subject of test [20] is Streptococcus pneumoniae ATCC 33400.
Test [21] deals with Pseudomonas aeruginosa ATCC 27853.
Test [22] deals with Klebsiella pneumoniae ATCC 700603.
Test [23] deals with Shewanella putrefaciens ATCC 49138.
The subject of test [24] is Salmonella enterica subsp. enterica serovar Enteritidis ATCC 13076.
The test system of test [25] is Klebsiella pneumoniae ATCC 13883.
Test [26] concerns Staphylococcus aureus ATCC 29213.
Test [27] deals with Campylobacter jejuni ATCC 33291.
Test [28] has as its system Listeria monocytogenes ATCC 19115.
The test system of test [29] is Enterococcus faecium ATCC 51559.
Test [30] relates to Staphylococcus epidermidis ATCC 29887.
The subject of test [31] is Pseudomonas aeruginosa LMG 6395.
Test [32] concerns Streptococcus pneumoniae ATCC 700677.
Test [33] has as its system Enterococcus faecium ATCC 35667.
Test [34] deals with Staphylococcus aureus 90857.
Test [35] deals with Bacillus subtilis var. niger ATCC 9372.
Test [36] relates to Bacillus anthracis Sterne 34F2.

One may read the MIC as the smallest concentration in the dilution series that meets the test's criterion for growth inhibition. A high value points to weaker potency. On to `CC[C@H](C)[C@H](NC(=O)[C@H](Cc1ccccc1)NC(=O)[C@H](CCCN=C(N)N)NC(=O)[C@H](CCCCN)NC(=O)[C@H](CC(C)C)NC(=O)[C@H](Cc1ccccc1)NC(=O)[C@H](CCCCN)NC(=O)[C@@H](NC(=O)[C@H](CC(C)C)NC(=O)[C@@H](N)CC(C)C)[C@@H](C)CC)C(=O)N[C@@H](CCCCN)C(=O)N[C@@H](Cc1cnc[nH]1)C(N)=O` [LLIKFLKRFIKH], for which the minimal inhibitory concentration (MIC) in test [1] is 3.21 µM (≈ 5 µg/mL); in test [2] it was 6.43 µM (≈ 9.99 µg/mL); in the test on Alternaria alternata, not below 64.3 µM; in test [3], 3.21 µM (≈ 5 µg/mL); against Cladosporium herbarum, 12.9 µM (≈ 20 µg/mL); in [4] it was 25.7 µM (≈ 40 µg/mL). Further, the figures for the MIC (in [5]; against Botrytis cinerea; in test [6]) were 6.43 µM (≈ 9.99 µg/mL), not below 64.3 µM and 3.21 µM (≈ 5 µg/mL), respectively.
As to `CC[C@H](C)[C@H](NC(=O)[C@H](CCCN=C(N)N)NC(=O)[C@H](CCCN=C(N)N)NC(=O)[C@H](Cc1ccccc1)NC(=O)[C@H](CC(C)C)NC(=O)[C@H](CCCN=C(N)N)NC(=O)[C@@H](N)CCCN=C(N)N)C(=O)N[C@@H](CC(C)C)C(=O)N[C@@H](CCCN=C(N)N)C(=O)N[C@@H](Cc1c[nH]c2ccccc12)C(=O)N[C@@H](CC(C)C)C(N)=O` [RRLFRRILRWL], the MIC in test [7] is 0.3 µM (≈ 0.475 µg/mL); in [8], 0.5 µM (≈ 0.792 µg/mL); in test [9] it was 15.8 µM (≈ 25 µg/mL); in test [10] it was not below 100 µM; in [11], 1.89 µM (≈ 3 µg/mL); in test [12] it was 0.2 µM (≈ 0.317 µg/mL). Besides, the minimum inhibitory concentration (MIC) in test [13] amounted to 2 µM (≈ 3.17 µg/mL); in [14], 2 µM (≈ 3.17 µg/mL); in test [15], 0.8 µM (≈ 1.27 µg/mL); in [16] it was 7.57 µM (≈ 12 µg/mL); in test [17] it was 8 µM (≈ 12.7 µg/mL); in test [18], 4 µM (≈ 6.34 µg/mL). The MIC worked out at 2.5 µM (≈ 3.96 µg/mL) in test [19]; 0.8 µM (≈ 1.27 µg/mL) in test [20]; 1.5 µM (≈ 2.38 µg/mL) in test [21]; 0.3 µM (≈ 0.475 µg/mL) in [22]; 3.79 µM (≈ 6 µg/mL) in test [23]; 3.79 µM (≈ 6 µg/mL) in [24]. For the same compound, the minimal inhibitory concentration (MIC) came out at 0.1 µM (≈ 0.158 µg/mL) in test [25]; 3.79 µM (≈ 6 µg/mL) in test [26]; 3.79 µM (≈ 6 µg/mL) in test [27]; 3.79 µM (≈ 6 µg/mL) in test [28]; 1 µM (≈ 1.58 µg/mL) in test [29]; 1.89 µM (≈ 3 µg/mL) in [30]. For the same compound, the MIC stood at 7.57 µM (≈ 12 µg/mL) in the test with Fusarium oxysporum LD21, 3 µM (≈ 4.75 µg/mL) in [31], 0.4 µM (≈ 0.634 µg/mL) in test [32] and 1 µM (≈ 1.58 µg/mL) in test [33].
`CC[C@H](C)[C@H](NC(=O)[C@H](CCCCN)NC(=O)[C@H](CCCCN)NC(=O)[C@H](CC(C)C)NC(=O)[C@H](Cc1ccccc1)NC(=O)[C@H](CCCN=C(N)N)NC(=O)[C@@H](N)CC(C)C)C(=O)N[C@@H](CC(C)C)C(=O)N[C@@H](CCCCN)C(=O)N[C@@H](CCCCN)C(=O)N[C@@H](CC(C)C)C(=O)N[C@@H](Cc1ccccc1)C(N)=O` [LRFLKKILKKLF]: the MIC in test [34] was 1.5 µM (≈ 2.32 µg/mL); in test [1], 0.646 µM (≈ 0.999 µg/mL); in [2] it was 1.62 µM (≈ 2.5 µg/mL); in test [3] it was 0.646 µM (≈ 0.999 µg/mL); in test [4] it was 1.62 µM (≈ 2.5 µg/mL); in [5], 1.62 µM (≈ 2.5 µg/mL). The minimal inhibitory concentration (MIC) in test [6] turned out to be 1.62 µM (≈ 2.5 µg/mL).
`CC[C@H](C)[C@H](NC(C)=O)C(=O)N[C@@H](CC(C)C)C(=O)N[C@@H](CCCN=C(N)N)C(=O)N[C@@H](Cc1c[nH]c2ccccc12)C(=O)N1CCC[C@H]1C(=O)N[C@@H](Cc1c[nH]c2ccccc12)C(=O)N[C@@H](Cc1c[nH]c2ccccc12)C(=O)N1CCC[C@H]1C(=O)N[C@@H](Cc1c[nH]c2ccccc12)C(=O)N[C@@H](CCCN=C(N)N)C(=O)N[C@@H](CCCN=C(N)N)C(=O)N[C@@H](CCCCN)C(N)=O` [ILRWPWWPWRRK]: the values for the MIC (in test [35]; in [36]; against Escherichia coli K91BK) were 3.13 µM (≈ 5.7 µg/mL), 25 µM (≈ 45.5 µg/mL) and not below 100 µM, respectively.
